From patent publication EP1976513B1 (priority 2006, dated 2007)

The compounds below were run against human serotonin reuptake transporter (Homo sapiens, UniProt P31645) (assay: cell-based). Settings: read-out: Human IC50 (nM) hSERT.
Chain of human serotonin reuptake transporter (P31645 whole entry): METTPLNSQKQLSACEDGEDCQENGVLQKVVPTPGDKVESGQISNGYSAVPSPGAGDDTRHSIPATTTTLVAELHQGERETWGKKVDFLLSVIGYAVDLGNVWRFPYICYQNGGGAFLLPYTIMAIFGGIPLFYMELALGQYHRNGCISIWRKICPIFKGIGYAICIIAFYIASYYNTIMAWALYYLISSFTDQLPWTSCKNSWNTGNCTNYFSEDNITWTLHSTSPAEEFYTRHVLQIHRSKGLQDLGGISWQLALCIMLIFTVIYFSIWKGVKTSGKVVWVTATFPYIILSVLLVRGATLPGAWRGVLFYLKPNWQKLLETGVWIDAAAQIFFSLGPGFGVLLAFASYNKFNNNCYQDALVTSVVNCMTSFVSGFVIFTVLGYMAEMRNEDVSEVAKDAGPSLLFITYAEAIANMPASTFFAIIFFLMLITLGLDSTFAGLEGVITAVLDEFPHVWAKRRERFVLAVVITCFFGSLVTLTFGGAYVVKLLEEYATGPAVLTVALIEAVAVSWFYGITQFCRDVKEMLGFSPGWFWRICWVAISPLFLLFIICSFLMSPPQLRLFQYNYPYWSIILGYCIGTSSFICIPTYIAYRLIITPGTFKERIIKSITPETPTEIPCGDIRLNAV

Point of comparison: `CN(C)CC1(c2ccc(Cl)c(Cl)c2)CCC(Oc2ccccc2)CC1` (centres unmarked) [Compound 266, 1-(1-(3,4-dichlorophenyl)-4-phenoxycyclohexyl)-N,N-dimethylmethanamine], IC50 168 nM. Against it:
- CN(C)CC1(c2ccc(Cl)c(Cl)c2)CCC(F)CC1 (centres unmarked) [Compound 261, 1-(1-(3,4-dichlorophenyl)-4-fluorocyclohexyl)-N,N-dimethylmethanamine] — 5.6-fold lower, 30 nM
- NCC1(c2ccc(Cl)c(Cl)c2)CCC(O)CC1 (centres unmarked) [Compound 262, 4-(aminomethyl)-4-(3,4-dichlorophenyl)cyclohexanol] — higher, > 10000 nM
- CN(C)CC1(c2ccc(Cl)c(Cl)c2)CCC2(CC1)OCCO2 [Compound 271, 1-(8-(3,4-dichlorophenyl)-1,4-dioxaspiro[4.5]decan-8-yl)-N,N-dimethylmethanamine] — 2.1-fold lower, 79 nM

Same assay, conditions: recombinant human serotonin transporter (SERT); read-out: Human IC50 (nM) hSERT

Point of comparison: `NCC1(c2ccc3ccccc3c2)CCC(O)(CF)CC1` (centres unmarked) [Compound 218, 4-(aminomethyl)-1-(fluoromethyl)-4-(naphthalen-2-yl)cyclohexanol], IC50 480 nM. Against it:
- NCC1(c2ccc3ccccc3c2)CCC(Cl)CC1 (centres unmarked) [Compound 211, (4-chloro-1-(naphthalen-2-yl)cyclohexyl)methanamine] — 8.7-fold lower, 55 nM
- NCC1(c2ccc3ccccc3c2)CCC(F)CC1 (centres unmarked) [Compound 212, (4-fluoro-1-(naphthalen-2-yl)cyclohexyl)methanamine] — 5.3-fold lower, 91 nM
- NCC1(c2ccc3ccccc3c2)CCC(F)CC1 (centres unmarked) [Compound 213, (4-fluoro-1-(naphthalen-2-yl)cyclohexyl)methanamine] — 1.7-fold lower, 283 nM
- NCC1(c2ccc3c(c2)OCO3)CCC(O)CC1 (centres unmarked) [Compound 214, 4-(aminomethyl)-4-(benzo[d][1,3]dioxol-5-yl)cyclohexanol] — higher, > 10000 nM
- CC1(O)CCC(CN)(c2ccc3c(c2)OCO3)CC1 (centres unmarked) [Compound 215, 4-(aminomethyl)-4-(benzo[d][1,3]dioxol-5-yl)-1-methylcyclohexanol] — 8.7-fold higher, 4190 nM
- CC1(O)CCC(CN)(c2ccc3c(c2)OCO3)CC1 (centres unmarked) [Compound 216, 4-(aminomethyl)-4-(benzo[d][1,3]dioxol-5-yl)-1-methylcyclohexanol] — higher, > 10000 nM
- NCC1(c2ccc3ccccc3c2)CCC(O)(CF)CC1 (centres unmarked) [Compound 217, 4-(aminomethyl)-1-(fluoromethyl)-4-(naphthalen-2-yl)cyclohexanol] — 10-fold lower, 47 nM
- NCC1(c2ccc(OC(F)(F)F)cc2)CCC(O)CC1 (centres unmarked) [Compound 220, 4-(aminomethyl)-4-(4-(trifluoromethoxy)phenyl)cyclohexanol] — 13-fold higher, 6150 nM
- NCC1(c2ccc3ccccc3c2)CCC(F)(F)CC1 [Compound 221, (4,4-difluoro-1-(naphthalen-2-yl)cyclohexyl)methanamine] — 7.9-fold lower, 61 nM
- CNCC1(c2ccc3ccccc3c2)CCC(C)(O)CC1 (centres unmarked) [Compound 222, 1-methyl-4-((methylamino)methyl)-4-(naphthalen-2-yl)-cyclohexanol] — within 1.5-fold, 609 nM
- CNCC1(c2ccc3ccccc3c2)CCC(C)(O)CC1 (centres unmarked) [Compound 223, 1-methyl-4-((methylamino)methyl)-4-(naphthalen-2-yl)cyclohexanol] — 6.6-fold lower, 73 nM
- CN(C)CC1(c2ccc3ccccc3c2)CCC(C)(O)CC1 (centres unmarked) [Compound 224, 4-((dimethylamino)methyl)-1-methyl-4-(naphthalen-2-yl)cyclohexanol] — 7-fold lower, 69 nM
- CN(C)CC1(c2ccc3ccccc3c2)CCC(O)CC1 (centres unmarked) [Compound 228, 4-((dimethylamino)methyl)-4-(naphthalen-2-yl)cyclohexanol] — 5-fold lower, 96 nM
- CN(C)CC1(c2ccc3ccccc3c2)CCC(O)CC1 (centres unmarked) [Compound 229, 4-((dimethylamino)methyl)-4-(naphthalen-2-yl)cyclohexanol] — 44-fold lower, 11 nM
- CN(C)CC1(c2ccc3ccccc3c2)CCC(Cl)CC1 (centres unmarked) [Compound 230, 1-(4-chloro-1-(naphthalen-2-yl)cyclohexyl)-N,N-dimethylmethanamine] — 16-fold lower, 30 nM
- CN(C)CC1(c2ccc3ccccc3c2)CCC(F)CC1 (centres unmarked) [Compound 233, 1-(4-fluoro-1-(naphthalen-2-yl)cyclohexyl)-N,N-dimethylmethanamine] — 13-fold lower, 37 nM
- CN(C)CC1(c2ccc3ccccc3c2)CCC(F)CC1 (centres unmarked) [Compound 235, 1-(4-fluoro-1-(naphthalen-2-yl)cyclohexyl)-N,N-dimethylmethanamine] — 53-fold lower, 9 nM

These compounds were tested against T1, human dopamine reuptake transporter (Homo sapiens, UniProt Q01959) (assay: cell-based). Settings: Human IC50 (nM) hDAT.
T1 construct: expressed in transfected cells; host or cells: CHO-K1 or HEK293
T1 sequence (Q01959 whole entry): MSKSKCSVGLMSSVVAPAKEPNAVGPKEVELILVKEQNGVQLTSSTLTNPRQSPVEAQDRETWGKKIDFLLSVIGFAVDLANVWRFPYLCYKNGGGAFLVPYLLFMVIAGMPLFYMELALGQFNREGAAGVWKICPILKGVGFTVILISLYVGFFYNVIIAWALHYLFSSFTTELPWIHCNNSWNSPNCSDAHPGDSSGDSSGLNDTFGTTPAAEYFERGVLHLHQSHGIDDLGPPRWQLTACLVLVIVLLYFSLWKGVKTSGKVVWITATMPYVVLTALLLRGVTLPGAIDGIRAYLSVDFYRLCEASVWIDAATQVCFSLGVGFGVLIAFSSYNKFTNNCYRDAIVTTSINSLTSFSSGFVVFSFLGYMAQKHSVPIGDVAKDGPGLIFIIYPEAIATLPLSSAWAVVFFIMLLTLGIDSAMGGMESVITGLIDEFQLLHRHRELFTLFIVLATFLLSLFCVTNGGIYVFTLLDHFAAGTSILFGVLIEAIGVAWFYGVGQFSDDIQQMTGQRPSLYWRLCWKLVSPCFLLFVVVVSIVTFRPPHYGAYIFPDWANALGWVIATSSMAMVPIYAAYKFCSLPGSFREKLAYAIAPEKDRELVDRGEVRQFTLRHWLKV

With `CN(C)CC1(c2ccc(Cl)c(Cl)c2)CCC(F)CC1` (centres unmarked) [Compound 261, 1-(1-(3,4-dichlorophenyl)-4-fluorocyclohexyl)-N,N-dimethylmethanamine] the IC50 was 7 nM.

Same assay, conditions: read-out: Human IC50 (nM) hDAT

Point of comparison: `CNCC1(c2ccc3ccccc3c2)CCC(C)(O)CC1` (centres unmarked) [Compound 223, 1-methyl-4-((methylamino)methyl)-4-(naphthalen-2-yl)cyclohexanol], IC50 874 nM. Against it:
- CNCC1(c2ccc3ccccc3c2)CCC(C)(O)CC1 (centres unmarked) [Compound 222, 1-methyl-4-((methylamino)methyl)-4-(naphthalen-2-yl)-cyclohexanol] — 2.4-fold higher, 2090 nM
- CN(C)CC1(c2ccc3ccccc3c2)CCC(O)CC1 (centres unmarked) [Compound 228, 4-((dimethylamino)methyl)-4-(naphthalen-2-yl)cyclohexanol] — 1.8-fold higher, 1560 nM
- CN(C)CC1(c2ccc3ccccc3c2)CCC(O)CC1 (centres unmarked) [Compound 229, 4-((dimethylamino)methyl)-4-(naphthalen-2-yl)cyclohexanol] — 22-fold lower, 40 nM
- CN(C)CC1(c2ccc(Cl)c(Cl)c2)CCC(Oc2ccccc2)CC1 (centres unmarked) [Compound 266, 1-(1-(3,4-dichlorophenyl)-4-phenoxycyclohexyl)-N,N-dimethylmethanamine] — within 1.5-fold, 859 nM

Same assay, conditions: recombinant human dopamine transporter (DAT); read-out: Human IC50 (nM) hDAT

Point of comparison: `NCC1(c2ccc3ccccc3c2)CCC(Cl)CC1` (centres unmarked) [Compound 211, (4-chloro-1-(naphthalen-2-yl)cyclohexyl)methanamine], IC50 195 nM. Against it:
- NCC1(c2ccc3ccccc3c2)CCC(F)CC1 (centres unmarked) [Compound 212, (4-fluoro-1-(naphthalen-2-yl)cyclohexyl)methanamine] — 2.6-fold lower, 75 nM
- NCC1(c2ccc3ccccc3c2)CCC(F)CC1 (centres unmarked) [Compound 213, (4-fluoro-1-(naphthalen-2-yl)cyclohexyl)methanamine] — 1.7-fold higher, 337 nM
- NCC1(c2ccc3c(c2)OCO3)CCC(O)CC1 (centres unmarked) [Compound 214, 4-(aminomethyl)-4-(benzo[d][1,3]dioxol-5-yl)cyclohexanol] — higher, > 10000 nM
- CC1(O)CCC(CN)(c2ccc3c(c2)OCO3)CC1 (centres unmarked) [Compound 215, 4-(aminomethyl)-4-(benzo[d][1,3]dioxol-5-yl)-1-methylcyclohexanol] — 32-fold higher, 6240 nM
- CC1(O)CCC(CN)(c2ccc3c(c2)OCO3)CC1 (centres unmarked) [Compound 216, 4-(aminomethyl)-4-(benzo[d][1,3]dioxol-5-yl)-1-methylcyclohexanol] — higher, > 10000 nM
- NCC1(c2ccc3ccccc3c2)CCC(O)(CF)CC1 (centres unmarked) [Compound 217, 4-(aminomethyl)-1-(fluoromethyl)-4-(naphthalen-2-yl)cyclohexanol] — 10-fold higher, 1970 nM
- NCC1(c2ccc3ccccc3c2)CCC(O)(CF)CC1 (centres unmarked) [Compound 218, 4-(aminomethyl)-1-(fluoromethyl)-4-(naphthalen-2-yl)cyclohexanol] — 29-fold higher, 5590 nM
- NCC1(c2ccc(OC(F)(F)F)cc2)CCC(O)CC1 (centres unmarked) [Compound 220, 4-(aminomethyl)-4-(4-(trifluoromethoxy)phenyl)cyclohexanol] — higher, > 10000 nM
- NCC1(c2ccc3ccccc3c2)CCC(F)(F)CC1 [Compound 221, (4,4-difluoro-1-(naphthalen-2-yl)cyclohexyl)methanamine] — within 1.5-fold, 182 nM
- CN(C)CC1(c2ccc3ccccc3c2)CCC(C)(O)CC1 (centres unmarked) [Compound 224, 4-((dimethylamino)methyl)-1-methyl-4-(naphthalen-2-yl)cyclohexanol] — 5.1-fold higher, 993 nM
- CN(C)CC1(c2ccc3ccccc3c2)CCC(Cl)CC1 (centres unmarked) [Compound 230, 1-(4-chloro-1-(naphthalen-2-yl)cyclohexyl)-N,N-dimethylmethanamine] — 18-fold lower, 11 nM
- CN(C)CC1(c2ccc3ccccc3c2)CCC(F)CC1 (centres unmarked) [Compound 233, 1-(4-fluoro-1-(naphthalen-2-yl)cyclohexyl)-N,N-dimethylmethanamine] — 65-fold lower, 3 nM
- CN(C)CC1(c2ccc3ccccc3c2)CCC(F)CC1 (centres unmarked) [Compound 235, 1-(4-fluoro-1-(naphthalen-2-yl)cyclohexyl)-N,N-dimethylmethanamine] — 2.1-fold lower, 92 nM
- NCC1(c2ccc(Cl)c(Cl)c2)CCC(O)CC1 (centres unmarked) [Compound 262, 4-(aminomethyl)-4-(3,4-dichlorophenyl)cyclohexanol] — 22-fold higher, 4280 nM
- CN(C)CC1(c2ccc(Cl)c(Cl)c2)CCC2(CC1)OCCO2 [Compound 271, 1-(8-(3,4-dichlorophenyl)-1,4-dioxaspiro[4.5]decan-8-yl)-N,N-dimethylmethanamine] — within 1.5-fold, 197 nM
